Experiment [1] in a line: In vivo inhibitory activity against Matrix metalloprotease enzyme by dialysis implant assay, value are relative to activity of CGS-27023 (41+/-4) at 25 mg/kg. po. The format is functional.
Experiment [2] concerns the target T1, Interstitial collagenase (Homo sapiens, UniProt P03956).
T1 sequence (P03956 whole entry): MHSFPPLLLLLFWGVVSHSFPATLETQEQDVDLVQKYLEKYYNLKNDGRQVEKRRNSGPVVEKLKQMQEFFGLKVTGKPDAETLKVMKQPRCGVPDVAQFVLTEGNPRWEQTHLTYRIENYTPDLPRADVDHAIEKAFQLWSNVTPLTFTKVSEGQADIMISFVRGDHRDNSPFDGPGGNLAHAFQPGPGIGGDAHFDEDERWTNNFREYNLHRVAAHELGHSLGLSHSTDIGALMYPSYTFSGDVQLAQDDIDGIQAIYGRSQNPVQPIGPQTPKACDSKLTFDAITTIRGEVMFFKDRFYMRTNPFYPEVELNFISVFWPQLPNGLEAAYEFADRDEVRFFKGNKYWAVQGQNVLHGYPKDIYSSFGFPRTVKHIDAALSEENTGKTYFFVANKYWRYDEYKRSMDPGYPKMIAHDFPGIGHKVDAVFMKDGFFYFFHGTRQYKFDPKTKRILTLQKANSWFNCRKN
Put plainly: In vitro inhibitory activity against matrix metalloprotease-1.

The target of experiment [3] is Matrix metalloproteinase-9 (Homo sapiens, UniProt P14780). Put plainly: In vitro inhibitory activity against matrix metalloprotease-9.
In experiment [4] the target is Disintegrin and metalloproteinase domain-containing protein 17 (Homo sapiens, UniProt P78536). The experiment is described as follows: In vitro inhibitory activity against tumor necrosis factor alpha converting enzyme (TACE).
Experiment [5] deals with Collagenase 3 (Homo sapiens, UniProt P45452).
Experiment [6] is described as follows: In vivo inhibitory activity against Matrix metalloprotease enzyme by dialysis implant assay, value are relative to activity of CGS-27023 (71+/-2) at 25 mg/kg. po. The format is functional.
The test system of experiment [7] is Rattus norvegicus. The experiment is described as follows: In vivo inhibition of Matrix metalloprotease enzyme by Sponge-wrapped cartilage assay at 25 mg/kg. po. qd. In kind it is functional.

Chain of Disintegrin and metalloproteinase domain-containing protein 17 (P78536 whole entry, the tested form may be a part): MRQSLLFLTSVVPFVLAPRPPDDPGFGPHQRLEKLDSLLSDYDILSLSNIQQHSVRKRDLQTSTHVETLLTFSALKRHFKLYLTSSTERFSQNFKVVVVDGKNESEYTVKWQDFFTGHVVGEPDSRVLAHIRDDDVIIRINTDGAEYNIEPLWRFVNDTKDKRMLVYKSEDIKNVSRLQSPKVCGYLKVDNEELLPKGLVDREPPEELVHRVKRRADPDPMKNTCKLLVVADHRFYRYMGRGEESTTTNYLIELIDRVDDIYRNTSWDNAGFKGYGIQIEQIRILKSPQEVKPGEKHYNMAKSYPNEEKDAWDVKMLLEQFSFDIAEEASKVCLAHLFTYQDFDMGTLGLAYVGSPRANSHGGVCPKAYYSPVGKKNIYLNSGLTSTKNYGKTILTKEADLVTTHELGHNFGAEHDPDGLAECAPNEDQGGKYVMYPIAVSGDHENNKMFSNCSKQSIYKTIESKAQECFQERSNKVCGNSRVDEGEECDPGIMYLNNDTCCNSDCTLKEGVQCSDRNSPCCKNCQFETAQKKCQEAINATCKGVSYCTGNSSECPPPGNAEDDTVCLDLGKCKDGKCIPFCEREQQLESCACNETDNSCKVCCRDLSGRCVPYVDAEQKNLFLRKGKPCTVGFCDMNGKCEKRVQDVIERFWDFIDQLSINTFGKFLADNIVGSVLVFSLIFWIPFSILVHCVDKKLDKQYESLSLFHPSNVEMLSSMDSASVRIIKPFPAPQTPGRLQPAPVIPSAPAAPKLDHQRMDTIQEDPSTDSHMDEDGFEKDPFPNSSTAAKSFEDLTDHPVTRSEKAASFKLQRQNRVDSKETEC
Chain of Matrix metalloproteinase-9 (P14780 whole entry, the tested form may be a part): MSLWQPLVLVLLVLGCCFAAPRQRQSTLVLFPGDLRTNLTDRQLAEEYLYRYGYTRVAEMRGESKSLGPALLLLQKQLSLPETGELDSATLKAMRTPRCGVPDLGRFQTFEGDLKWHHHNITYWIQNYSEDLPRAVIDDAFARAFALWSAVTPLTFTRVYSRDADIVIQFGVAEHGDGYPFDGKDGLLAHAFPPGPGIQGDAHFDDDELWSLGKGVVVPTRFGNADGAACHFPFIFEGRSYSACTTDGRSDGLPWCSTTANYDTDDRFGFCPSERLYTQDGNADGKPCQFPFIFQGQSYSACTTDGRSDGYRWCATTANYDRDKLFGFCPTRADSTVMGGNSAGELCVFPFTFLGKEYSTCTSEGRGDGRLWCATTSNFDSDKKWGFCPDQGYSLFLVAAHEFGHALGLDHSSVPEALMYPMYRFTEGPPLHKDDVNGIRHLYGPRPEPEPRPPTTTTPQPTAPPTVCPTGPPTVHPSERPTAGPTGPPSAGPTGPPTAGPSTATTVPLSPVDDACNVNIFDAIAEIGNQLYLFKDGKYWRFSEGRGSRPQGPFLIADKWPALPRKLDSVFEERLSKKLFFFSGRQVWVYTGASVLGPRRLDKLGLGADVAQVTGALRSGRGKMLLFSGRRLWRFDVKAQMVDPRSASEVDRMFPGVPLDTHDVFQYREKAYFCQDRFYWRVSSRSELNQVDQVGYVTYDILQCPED

As to `COc1ccc(S(=O)(=O)C2(C(=O)NO)CCN(Cc3ccc(-c4cccs4)cc3)CC2)cc1`, in experiment [1], the inhibition in vivo at 25 mg/kg amounted to 12%. The half-maximal inhibitory concentration (IC50) in experiment [2] is 0.531 µM; in experiment [3], 0.011 µM; in experiment [4], 0.273 µM; in experiment [5] it was 0.003 µM.
For `O=C(NO)C1(S(=O)(=O)c2ccc(-c3ccco3)cc2)CCN(Cc2ccccc2)CC1`, testing at 25 mg/kg in experiment [6] gave an inhibition in vivo of 95%. The half-inhibitory concentration (IC50) turned out to be 0.04 µM in experiment [2], 0.003 µM in experiment [3] and 0.416 µM in experiment [4].
In experiment [7], `COc1ccc(S(=O)(=O)C(C)(Cc2ccc(OCCN3CCCCC3)cc2)C(=O)NO)cc1` (stereo not given) returned a Protection of 68%.

One may read the inhibition in vivo as the percentage by which the read-out fell short of the control. Read a high inhibition in vivo as a strong effect. The term IC50 denotes the concentration needed to halve the response being measured. A low value points to greater potency in that assay.
